PubChem BioAssay (NCI)
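Grown in 96-well plates, cells were treated for 48 hours with each compound at five concentrations. Insufficient inhibition: endpoint recorded as highest concentration tested. TGI marks complete inhibition of growth.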

Columns and labels:
Test in all cases: DTP human tumour cell line panel, 48 h
COLO 205 colon = test system: COLO 205 colon
EKVX NSCLC = test system: EKVX NSCLC
OVCAR-3 ovarian = test system: OVCAR-3 ovarian
SF-539 CNS = test system: SF-539 CNS
SK-MEL-5 melanoma = test system: SK-MEL-5 melanoma
SNB-19 CNS = test system: SNB-19 CNS
SNB-75 CNS = test system: SNB-75 CNS
UACC-257 melanoma = test system: UACC-257 melanoma
HCC-2998 colon = test system: HCC-2998 colon
UO-31 renal = test system: UO-31 renal

SMILES | TGI (COLO 205 colon) [µM] | TGI (EKVX NSCLC) [µM] | TGI (OVCAR-3 ovarian) [µM] | TGI (SF-539 CNS) [µM] | TGI (SK-MEL-5 melanoma) [µM] | TGI (SNB-19 CNS) [µM] | TGI (SNB-75 CNS) [µM] | TGI (UACC-257 melanoma) [µM] | TGI (HCC-2998 colon) [µM] | TGI (UO-31 renal) [µM]
CCOP(=O)(/C=C\n1cc(C)c(=O)[nH]c1=O)OCC | > 100 | > 100 | > 100 | > 100 | > 100 | > 100 | > 100 | > 100 |  | 
COC(=O)C1(Cc2ccc3c(c2)CCC3)Cc2ccccc2C1O (stereo not given) | 33.8 | 69.4 | 36.8 | 33.1 | 29.8 | 35.6 |  | 31.5 | 31.9 | 29.2
Nc1ccc(S(=O)(=O)c2ccc(NCN3C(=O)NC(=O)C(=O)C3=O)cc2)cc1 |  | > 100 | > 100 |  | > 100 | > 100 |  | > 100 | > 100 | > 100
C[N+](C)(C)c1ccc(C(N)C(=O)O)cc1 (stereo not given) | > 100 | > 100 | > 100 |  | > 100 | > 100 | > 100 | > 100 | > 100 | > 100
Cc1ccc(S(=O)(=O)n2c3ccc(Br)cc3c3nc4ccccc4nc32)cc1 | > 100 |  | > 100 |  | > 100 | > 100 | > 100 | > 100 | > 100 | > 100
C[C@H](NC(=O)C(Cc1ccccc1)(Cc1ccc(O)cn1)NC(=O)c1ccccc1)c1ccccc1 (stereo not given in full) | 35.1 | 34.2 | 28.7 | 34.2 | 33.7 | 39.4 |  | 34.5 | 30.8 | 29.1
C=C(C(N)=O)c1ccc([N+](=O)[O-])o1 | 12.9 | 42 | 22.4 | 27.2 | 16.4 | > 100 | 37.1 | 21.7 | 33.6 | 
O=C1CCCCCCCCCCC1CN1CCCC1 (stereo not given) | 51.9 |  | > 100 | 65.1 | 31.6 | > 100 | > 100 | 49.3 | 70.6 | > 100
COC(=O)C1CCC(=S)N1C(=O)c1ccccc1 (stereo not given) | > 100 | > 100 | > 100 |  | > 100 | > 100 | > 100 | > 100 | > 100 | > 100
Cc1ccc(/C(O)=C/c2nc3ccccc3sc2=O)c(C)c1 | > 100 | > 100 | > 100 | > 100 | > 100 | > 100 |  | > 100 | > 100 | > 100
O=S(Nc1ccccc1)c1ccc(N2CCOCC2)cc1 (stereo not given) | > 100 | > 100 | > 100 | > 100 | > 100 | > 100 |  | > 100 | > 100 | 42.7
COc1ccc(C2=Nc3cc(C)c(C)cc3NC(c3ccccc3)C2)cc1 (stereo not given) | 37.6 | > 100 | > 100 | > 100 | > 100 | > 100 |  | > 100 | > 100 | > 100
CC1CCC/C1=C(/I)C(=O)c1ccccc1 (stereo not given) | > 100 | > 100 |  | > 100 | 69.5 | > 100 | 85 | > 100 | > 100 | > 100
COC(C(=O)NN)c1ccccc1 (stereo not given) |  | > 100 | > 100 | > 100 | > 100 | > 100 | > 100 | > 100 | > 100 | > 100
C=C/C(C)=C\CC1[C@](C)(O)CC[C@H]2C(C)(C)C(=O)CC[C@]12C (stereo not given in full) | > 100 | > 100 | > 100 | > 100 | > 100 | > 100 | > 100 | > 100 |  | 57
CCN(CC)N1C(=O)[N+](CC)(CC)N=C1[O-] | > 100 | > 100 | > 100 | > 100 | > 100 | > 100 | > 100 |  | > 100 | > 100
CN(C)C(=O)OC1C(=O)N(C)c2ccc(Cl)cc2C2(c3ccccc3)N1C2(Cl)Cl (stereo not given) | > 100 | > 100 | > 100 |  | > 100 |  | > 100 | > 100 | > 100 | > 100
O=c1[nH]nc(-c2ccccc2)n1/N=C\c1ccccc1 | > 100 | > 100 | > 100 | > 100 | > 100 |  | > 100 | > 100 | > 100 | > 100
CC(C)=NN/C(=N\S(=O)(=O)c1ccc(Oc2cccc(Cl)c2C#N)cc1)Nc1ccc(Cl)cc1 | > 100 | > 100 | > 100 |  | > 100 | > 100 |  | > 100 |  | > 100
CCNC(=S)N=Nc1c(O)[nH]c2ccc([N+](=O)[O-])cc12 | > 100 | > 100 | > 100 | > 100 | > 100 | > 100 |  | > 100 | 72.8 | > 100
CC1(C)N/C(=C\C=O)C(C)(C)N1O | > 100 | > 100 | > 100 | > 100 | > 100 | > 100 |  | > 100 | > 100 | > 100
CCCCC(=O)c1c(O)nc2sccn2c1=O | > 10 | > 10 | > 10 | > 10 | > 10 | > 10 | > 10 |  | > 10 | > 10
CO/N=C1\CC(NC(=O)CNC(=O)OC(C)(C)C)c2ccsc21 (stereo not given) | > 100 | > 100 | > 100 | > 100 | > 100 |  | > 100 | > 100 | > 100 | > 100
